Measurements from PubChem BioAssay (NCI).
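How tested: cells in 96-well plates exposed to compound for 48 hours at five concentrations. GI50 is the concentration that inhibits growth by half. TGI denotes the concentration required for complete inhibition of growth.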

Experiments:
Assay in all cases: NCI-60 cell line screen, 48 h
[1] = test system: CAKI-1 renal
[2] = test system: SK-OV-3 ovarian
[3] = test system: NCI-H460 lung
[4] = test system: MALME-3M melanoma
[5] = test system: COLO 205 colon
[6] = test system: HCT-15 colon
[7] = test system: HCC-2998 colon
[8] = test system: SF-539 CNS

SMILES: N#CC(C#N)=C/C=C(\Sc1ccc(F)cc1Cl)c1ccc(Cl)cc1
- GI50 [1]: 0.427 µM
- TGI [1]: 3.61 µM
- GI50 [2]: 2.8 µM
- TGI [2]: 23.4 µM
- GI50 [3]: 0.763 µM
- TGI [3]: 4.82 µM
- GI50 [4]: 0.406 µM
- TGI [4]: 1.72 µM
- GI50 [5]: 0.515 µM
- TGI [5]: 5.02 µM
- GI50 [6]: 0.425 µM
- TGI [6]: 1.58 µM
- GI50 [7]: 2.3 µM
- TGI [7]: 4.54 µM
- GI50 [8]: 0.391 µM
- TGI [8]: 3.59 µM

SMILES: CCCCNc1ccc(Nc2ccccc2)cc1
- GI50 [1]: 18.6 µM
- TGI [1]: 88.5 µM
- GI50 [2]: 12.6 µM
- TGI [2]: 70.3 µM
- GI50 [3]: 4.61 µM
- TGI [3]: 43 µM
- GI50 [4]: 3.8 µM
- TGI [4]: 28.8 µM
- GI50 [5]: 2.77 µM
- TGI [5]: 11.7 µM
- GI50 [6]: 21.3 µM
- TGI [6]: > 100 µM
- GI50 [7]: 5.73 µM
- TGI [7]: > 100 µM
- GI50 [8]: 11.8 µM
- TGI [8]: 57.3 µM

SMILES: CN(CCC(=O)/C(=C\c1ccccc1)c1ccc(Cl)cc1)Cc1ccccc1
- GI50 [1]: 3.54 µM
- TGI [1]: 12.5 µM
- GI50 [2]: 12.7 µM
- TGI [2]: 26.4 µM
- GI50 [3]: 3.18 µM
- TGI [3]: 11.2 µM
- GI50 [4]: 3.23 µM
- TGI [4]: 11.8 µM
- GI50 [5]: 2.75 µM
- TGI [5]: 7.24 µM
- GI50 [6]: 2.42 µM
- TGI [6]: 7.05 µM
- GI50 [7]: 3.54 µM
- TGI [7]: 9.77 µM
- GI50 [8]: 2.74 µM
- TGI [8]: 6.88 µM

SMILES: O=C1CC/C(=C/COc2cc(=O)oc3ccccc23)O1
- GI50 [1]: 11.9 µM
- TGI [1]: 28.3 µM
- GI50 [2]: 22.9 µM
- TGI [2]: > 100 µM
- GI50 [3]: 17.5 µM
- TGI [3]: 47.2 µM
- GI50 [4]: 2.87 µM
- TGI [4]: 17.9 µM
- GI50 [5]: 3.61 µM
- TGI [5]: 17.5 µM
- GI50 [6]: 5.28 µM
- TGI [6]: 18.4 µM
- GI50 [7]: 15.5 µM
- TGI [7]: 29.5 µM
- GI50 [8]: 6.01 µM
- TGI [8]: 21.1 µM

SMILES: CCC(C)C(=O)OCC(=O)c1ccc(-c2ccccc2)cc1 (stereo not given)
- TGI [1]: > 100 µM
- TGI [2]: > 100 µM
- TGI [3]: > 100 µM
- TGI [4]: > 100 µM
- TGI [5]: > 100 µM
- TGI [6]: 43.3 µM
- TGI [7]: > 100 µM
- TGI [8]: > 100 µM

SMILES: Cc1cccc2c3c(sc12)C(c1ccc(F)cc1)C(C#N)=C(N)O3 (stereo not given)
- GI50 [1]: 0.0466 µM
- TGI [1]: 12.5 µM
- GI50 [2]: 1.35 µM
- TGI [2]: 27.8 µM
- GI50 [3]: 0.0537 µM
- TGI [3]: 2.52 µM
- GI50 [4]: 0.08 µM
- TGI [4]: 19 µM
- GI50 [5]: 0.28 µM
- TGI [5]: 1.29 µM
- GI50 [6]: 0.0447 µM
- TGI [6]: 10.7 µM
- GI50 [7]: 0.311 µM
- TGI [7]: 9.75 µM
- GI50 [8]: 0.0473 µM
- TGI [8]: 0.679 µM

SMILES: CN(C)c1ccc(/C=N/S(=O)(=O)c2ccc(-n3c(-c4ccccc4)nc4c(Br)cc(Br)cc4c3=O)cc2)cc1
- GI50 [1]: 47.5 µM
- TGI [1]: > 100 µM
- GI50 [2]: 47.2 µM
- TGI [2]: > 100 µM
- GI50 [3]: 28.5 µM
- TGI [3]: > 100 µM
- GI50 [4]: 47.2 µM
- TGI [4]: > 89.7 µM
- GI50 [5]: 44.9 µM
- TGI [5]: > 100 µM
- GI50 [6]: 51.1 µM
- TGI [6]: > 100 µM
- GI50 [7]: 51.2 µM
- TGI [7]: > 100 µM
- GI50 [8]: 44.4 µM
- TGI [8]: > 91.8 µM

SMILES: CC(=O)O[C@H]1CC[C@@]2(C)C(=C/C(=N/OCCN3CCCC3)[C@H]3[C@@H]4CC[C@H](OC(C)=O)[C@@]4(C)CC[C@@H]32)C1
- GI50 [1]: > 100 µM
- TGI [1]: > 100 µM
- GI50 [2]: 40.8 µM
- TGI [2]: > 100 µM
- GI50 [3]: 24.8 µM
- TGI [3]: 52.1 µM
- GI50 [4]: 18 µM
- TGI [4]: 36.1 µM
- GI50 [5]: 18.5 µM
- TGI [5]: 34.9 µM
- GI50 [6]: 20.1 µM
- TGI [6]: 45 µM
- GI50 [7]: 45 µM
- TGI [7]: > 100 µM
- GI50 [8]: > 100 µM
- TGI [8]: > 100 µM

SMILES: CCOc1ccc2c(c1)c(CC(=O)O)cn2C
- TGI [1]: > 100 µM
- TGI [2]: > 100 µM
- TGI [3]: > 100 µM
- TGI [4]: > 100 µM
- TGI [5]: > 100 µM
- TGI [6]: > 100 µM
- TGI [7]: > 100 µM
- TGI [8]: > 100 µM

SMILES: COC(=O)C(C(=O)OC)C(Br)C(Br)C(Br)c1ccccc1 (stereo not given)
- GI50 [1]: 4.97 µM
- TGI [1]: 17.7 µM
- GI50 [2]: 23.6 µM
- TGI [2]: 72.3 µM
- GI50 [3]: 19.9 µM
- TGI [3]: 37.2 µM
- GI50 [4]: 2.34 µM
- TGI [4]: 4.92 µM
- GI50 [5]: 2.14 µM
- TGI [5]: 4.62 µM
- GI50 [6]: 2.83 µM
- TGI [6]: 11 µM
- GI50 [7]: 21 µM
- TGI [7]: 37.8 µM
- GI50 [8]: 18.2 µM
- TGI [8]: 33.7 µM

SMILES: Cn1cc(C2=C(Nc3ccccc3)C(=O)NC2=O)c2ccccc21
- GI50 [1]: > 25 µM
- TGI [1]: > 25 µM
- GI50 [2]: > 25 µM
- TGI [2]: > 25 µM
- GI50 [3]: > 25 µM
- TGI [3]: > 25 µM
- GI50 [4]: > 25 µM
- TGI [4]: > 25 µM
- GI50 [5]: > 25 µM
- TGI [5]: > 25 µM
- GI50 [6]: 24.8 µM
- TGI [6]: > 25 µM
- GI50 [7]: > 25 µM
- TGI [7]: > 25 µM
- GI50 [8]: > 25 µM
- TGI [8]: > 25 µM
